Experimental data reported in article PMC9154793, “Design, synthesis, and biological evaluation of triazole-pyrimidine-methylbenzonitrile derivatives as dual A2A/A2B adenosine receptor antagonists” (Journal of Enzyme Inhibition and Medicinal Chemistry, 2022).
Where two headings read alike, the source gives them in different places.

Legend:
[1] = target: T1, human A2A AR (Homo sapiens, UniProt P29274); test: cAMP functional assay in CHO-K1/ADORA2A/Gα15 cells (NECA-stimulated, HTRF); type: cell-based;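 note: inhibition of NECA-driven intracellular cAMP build-up in the A2A-expressing cells, quantified with cAMP-d2 plus Eu3+-labelled anti-cAMP detection reagent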
Protocol: (§16) In the cAMP assay, CHO-K1/ADORA2A/Gα15 cells expressing human A2A AR and CHO-K1/ADORA2b/Gα15 cells expressing human A2B AR were activated by 5′-(N-ethylcarboxamido)adenosine (NECA) and triggered the accumulation of intracellular cAMP concentration.
(§17) CHO-K1/ADORA2A/Gα15 cells expressing human A2A AR and CHO-K1/ADORA2b/Gα15 cells expressing human A2B AR were both constructed by Genscript Biotech Corporation. […] The test stock solutions were diluted with different gradients for use. The procedure was exemplified by the cAMP functional assay on the A2A receptor: 10,000 cells/well of CHO-K1/ADORA2A/Gα15 were seeded in a 384-well plate in 20 μl of assay buffer. […] Then, 10 μl of detection reagent (cAMP-d2 and anti-cAMP-Eu3+) was added into each well of the plate and incubated at room temperature for 1 h.

[2] = target: T2, human A2B AR (Homo sapiens, UniProt P29275); test: cAMP functional assay in CHO-K1/ADORA2b/Gα15 cells (NECA-stimulated, HTRF); type: cell-based
T2 sequence (P29275 1-332): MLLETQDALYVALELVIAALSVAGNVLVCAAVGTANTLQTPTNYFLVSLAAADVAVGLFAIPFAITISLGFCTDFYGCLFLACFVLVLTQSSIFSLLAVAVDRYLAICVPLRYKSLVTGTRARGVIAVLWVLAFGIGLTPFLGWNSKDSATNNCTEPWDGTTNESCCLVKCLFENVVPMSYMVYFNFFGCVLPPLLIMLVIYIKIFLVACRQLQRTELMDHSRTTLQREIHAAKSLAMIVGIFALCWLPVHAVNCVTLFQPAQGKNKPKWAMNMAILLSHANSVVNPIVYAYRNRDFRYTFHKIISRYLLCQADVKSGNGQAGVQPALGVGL
Protocol: as §16, §17

[3] = target: T1, human A2A AR; test: A2A AR radioligand binding assay ([3H]-ZM241385, HEK-293 cell membranes)
Protocol: We further tested the IC50 values of compounds 7f, 7i, 17, 22, and AB928 in inhibiting the cAMP production of CHO cells expressing hA2A AR or hA2B AR (Table 2). […] In addition, the competitive binding experiments of compounds 7f, 7i, and AB928 were performed using membrane preparation of HEK-293 cells expressing human A2A AR (Table 3).
The target compounds were tested to evaluate their affinity for the A2A AR on HEK-293 cell membranes expressing human A2A AR. [^3H]-ZM241385 was used as a radioligand. The assay buffer (50 mM Tris-HCl, pH 7.4; 10 mM MgCl2; 1 mM EDTA; 1 μg/ml adenosine deaminase), wash buffer (50 mM Tris-HCl, pH 7.4; 154 mM NaCl), and 0.5% PEI solution were prepared and stored at 4 °C for use. The affinities were tested following the procedure reported by Hu et al[4].

[4] = Metabolic stability in human liver microsomes; type: in vitro ADME; details: human, microsomes
Protocol: (§1) The metabolic stability is an important focus for further compound optimisation. Compounds 7f, 7i, and AB928 were chosen to evaluate the stability in rat liver microsomes and human liver microsomes. For the microsomal metabolic experiment, 7-ethoxycoumarin (7-EC) was used as a control. As shown in Table 4 (see Supporting information for raw data), the CLint(liver) of 7-EC in rats and humans was 10.0 and 9.0 ml/min/g liver, respectively, indicating the experimental test system was reliable.
(§2) Metabolic stabilities of compounds 7f, 7i, and AB928 in liver microsomes were studied with pooled human (male) liver microsomes solution (20 mg/ml) and male Sprague–Dawley rats pooled liver microsomes solution (20 mg/ml) purchased from Research Institute for Liver Diseases (Shanghai) Co. Ltd. Both liver microsomes solutions (140 μl) were diluted by 3948 μl of water and 280 μl of phosphate buffered saline. The assay procedure: 640 μl of diluted liver microsomes solution was added to a solution of compound working solution (16 μl, 25 μM in DMSO) and the mixed solution was incubated at 37 °C for 5 min. Then 160 μl of NADPH generating system was added and take out 100 μl from the mixed solution was added 200 μl of acetonitrile solution to stop the reaction at the set incubation time (0 min, 10 min, 20 min, 30 min, 40 min, 50 min, and 60 min). All stopped reaction solutions were vortex mixed (3 min) and centrifuged (10,000 rpm, 4 °C for 10 min). Then 50 μl of the supernatant was analysed by UPLC-MS/MS system (details of the analytical method see Supporting information). […]
(§3) 8. Metabolic stability in human and rat liver microsomes
(§4) Metabolic stabilities of compounds 7f, 7i and AB928 in liver microsomes were studied with pooled human (male) liver microsomes solution (20 mg/mL) and male Sprague - Dawley rats pooled liver microsomes solution (20 mg/mL) purchased from Research Institute for Liver Diseases (Shanghai) Co. Ltd. Both liver microsomes solutions (140 μL) were diluted by 3948 μL of water and 280 μL of phosphate buffered saline. The assay procedure: 640 μL of diluted liver microsomes solution was added to a solution of compound working solution (16 μL, 25 μM in DMSO) and the mixed solution was […]
(§5) (1 picture or pasted object on this page, not shown here) […]
(§6) incubated at 37 ℃ for 5 min. Then 160 μL of NADPH generating system was added and take out 100 μL from the mixed solution was added 200 μL of acetonitrile solution to stop the reaction at the set incubation time (0 min, 10 min, 20 min, 30 min, 40 min, 50 min, and 60 min). All stopped reaction solutions were vortex mixed (3 min) and centrifuged (10000 rpm, 4 ℃ for 10 min). Then 50 μL of the supernatant was analyzed […]
(§7) 8.2 Chromatography and mass spectrometry conditions
(§8) UPLC was performed using an […] UPLC system (Waters, Milford, MA, […]
(§9) USA). Separation was achieved on a Waters BEH C18 column(100 mm × 2.1 mm， 1.7 μm) at 40 ℃. The injection volume of the sample solution was 5 μL. The mobile phase consisted of water (0.1% formic acid and ammonium acetate) and acetonitrile solution (20:80, v/v) at a flow rate of 0.4 mL/min within a running time of 6 min. Mass spectrometric analysis was performed on a Waters Xevo TQ-S triple quadrupole instrument using electrospray ionization in positive mode. Quantification was performed using multiple reaction monitoring (MRM) mode to monitor precursor-product ion transitions (Table S1).
(§10) Table S1. Conditions of MRM Detection. […]
(§11) Table S2. Raw data of metabolic stability in human and rat liver microsomes. […]
(§12) (min) Hum Rat Hum Rat Hum Rat Hum Rat
(§13) 9. Analytical method of pharmacokinetics assay
(§14) Animal experiments were performed according to the institutional ethical guidelines on animal care and approved by the Institute Animal Care and Use Committee at Binzhou […]
(§15) Female Bal b/c mice (sourced from Jinan Pengyue Experimental Animal Breeding […]

[5] = Metabolic stability in rat liver microsomes; type: in vitro ADME, Sprague–Dawley rats
Protocol: as §1, §2, §3, §4, §5, §6, §7, §8, §9, §10, §11, §12, §13, §14, §15

[6] = CHO-K1, compound at 10 nM, relative to ZM241385 at 1 μM, mean ± SEM, read-out: hA2A AR (%) inhibition of cAMP, 10 nM
[7] = CHO-K1, compound at 100 nM, relative to ZM241385 at 1 μM, mean ± SEM, read-out: hA2A AR (%) inhibition of cAMP, 100 nM
[8] = CHO-K1, compound at 1000 nM, relative to ZM241385 at 1 μM, mean ± SEM, read-out: hA2A AR (%) inhibition of cAMP, 1000 nM
[9] = CHO-K1, compound at 100 nM, relative to ZM241385 at 1 μM, mean ± SEM, read-out: hA2B AR (%) inhibition of cAMP, 100 nM

T1 sequence (P29274 whole entry): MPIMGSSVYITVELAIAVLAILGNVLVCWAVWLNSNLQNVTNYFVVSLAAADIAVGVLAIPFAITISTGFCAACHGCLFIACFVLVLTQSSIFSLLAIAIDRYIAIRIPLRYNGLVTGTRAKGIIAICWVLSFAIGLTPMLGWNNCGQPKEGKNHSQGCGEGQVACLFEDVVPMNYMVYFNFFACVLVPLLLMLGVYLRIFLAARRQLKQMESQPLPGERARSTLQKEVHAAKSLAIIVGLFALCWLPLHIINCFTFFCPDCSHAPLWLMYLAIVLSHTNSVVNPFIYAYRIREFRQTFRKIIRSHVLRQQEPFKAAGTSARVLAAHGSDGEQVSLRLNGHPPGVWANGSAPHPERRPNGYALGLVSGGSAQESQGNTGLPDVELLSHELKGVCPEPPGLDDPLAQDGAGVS

With Cc1c(C#N)cccc1-c1cc(-c2cn(Cc3cccc(C(C)(C)O)n3)nn2)nc(N)n1 [AB928, reference compound] the IC50 [1] was 2.75 ± 0.12 nM, the inhibition at 0.01 µM ([1]; CHO-K1, read-out: hA2A AR (%) inhibition of cAMP, 10 nM) was 20 ± 6.46% and the inhibition at 0.1 µM ([1]; CHO-K1, read-out: hA2A AR (%) inhibition of cAMP, 100 nM) was 96.8 ± 7.16%. For the same compound, the inhibition at 1 µM ([1]; CHO-K1, read-out: hA2A AR (%) inhibition of cAMP, 1000 nM) was 101 ± 5.55%, the IC50 [2] was 25.5 ± 0.35 nM and the inhibition at 0.1 µM ([2]; CHO-K1, read-out: hA2B AR (%) inhibition of cAMP, 100 nM) was 103 ± 1.04%. For the same compound, the IC50 [3] was 25.2 ± 0.74 nM, the “CLint(liver) Hum” value [4] was 0.17 mL/min/g and the half-life at 0.49 µM ([4]; male) was 7.22 h. It also gave a remaining at 10 min, 0.49 µM ([4]; male) of 96.2%, a remaining at 20 min, 0.49 µM ([4]; male) of 104% and a remaining at 0.5 h, 0.49 µM ([4]; male) of 97%. It also gave a remaining at 40 min, 0.49 µM ([4]; male) of 91.8%, a remaining at 50 min, 0.49 µM ([4]; male) of 89% and a remaining at 1 h, 0.49 µM ([4]; male) of 94.4%. The remaining at 10 min, 0.49 µM ([5]; male, Sprague-Dawley, pooled rat liver microsomes, rat liver microsomes, 10 min) was 74.7%, the remaining at 20 min, 0.49 µM ([5]; male, Sprague-Dawley, pooled rat liver microsomes, rat liver microsomes, 20 min) was 67.4% and the remaining at 0.5 h, 0.49 µM ([5]; male, Sprague-Dawley, pooled rat liver microsomes, rat liver microsomes, 30 min) was 53.1%. For the same compound, the remaining at 40 min, 0.49 µM ([5]; male, Sprague-Dawley, pooled rat liver microsomes, rat liver microsomes, 40 min) was 42.8%, the remaining at 50 min, 0.49 µM ([5]; male, Sprague-Dawley, pooled rat liver microsomes, rat liver microsomes, 50 min) was 35.6% and the remaining at 1 h, 0.49 µM ([5]; male, Sprague-Dawley, pooled rat liver microsomes, rat liver microsomes, 60 min, read-out: Remaining (%, T = 60min) Rat) was 28.1%. The half-life at 0.49 µM ([5]; male, Sprague-Dawley, rat, pooled rat liver microsomes, read-out: T1/2 Rat) was 0.563 h and the “CLint(liver) Rat” value ([5]; rat liver microsomes) was 2.15 mL/min/g.

For COC(=O)c1cccc(Cn2cc(-c3cc(-c4cccc(C#N)c4C)nc(N)n3)nn2)n1 [Compound 7d, Methyl 6-((4-(2-amino-6-(3-cyano-2-methylphenyl)pyrimidin-4-yl)-1H-1,2,3-triazol-1-yl)methyl)picolinate], the inhibition at 0.01 µM [1, 6] was 40.8 ± 9.01%, the inhibition at 0.1 µM [1, 7] was 63.4 ± 1.39% and the inhibition at 1 µM [1, 8] was 91.3 ± 4.28%. The inhibition at 0.1 µM [2, 9] was 80.3 ± 1.84% and the melting point was 105 to 106 °C.

In the case of Cc1c(C#N)cccc1-c1cc(-c2cn(Cc3cccc(-c4ncc[nH]4)n3)nn2)nc(N)n1 [Compound 7g, 3-(6-(1-((6-(1H-imidazol-2-yl)pyridin-2-yl)methyl)-1H-1,2,3-triazol-4-yl)-2-aminopyrimidin-4-yl)-2-methylbenzonitrile], the inhibition at 0.01 µM [1, 6] is reported as 19.6 ± 2.13%, the inhibition at 0.1 µM [1, 7] is reported as 56 ± 2.03% and the inhibition at 1 µM [1, 8] is reported as 107.3 ± 0.89%. For the same compound, the inhibition at 0.1 µM [2, 9] was 52.9 ± 3.96% and the melting point was 139 to 140 °C.
